Assay results from patent publication US20230172950A1 (priority 2020, published 2023).

Columns and labels:
[1] = tested on: Splenocytes; assay: Ex vivo splenocyte incubation (Study 24), viability by flow cytometry; assay type: cell-based; settings: concentrations between 100 uM up to 500 uM
Experimental: (§1) The profound in vivo activity that we observe in naïve mice and in cancer models must be mediated through the mobilized supercharged Natural Killer T cells, T cells and dendritic cells after AVM0703 HED 6 mg/kg and higher.
Splenocytes were cultured for 16 hours prior to assay execution.

[2] = tested on: lymphocytes, monocytes, NKT cells, T cells, dendritic cells; settings: in vivo, HED of 18 mg/kg and higher
[3] = tested on: Whole Blood; assay: Ex vivo whole blood incubation (Study 6), immune cell counts; assay type: cell-based; settings: concentrations between 100 uM up to 500 uM
Experimental: as §1

[4] = in vivo; cited from earlier work

Which results are given for C[C@@H]1C[C@H]2[C@@H]3CCC4=CC(=O)C=C[C@]4(C)[C@@]3(F)[C@@H](O)C[C@]2(C)[C@@]1(O)C(=O)CO [dexamethasone base, dexamethasone]?
response of isolated splenocytes [1]: no response; effects on colon, pancreas or bone [2]: no effects; response of ex vivo whole blood [3]: no response

With C[C@]12C=CC(=O)C=C1CC[C@@H]1[C@@H]2C(=O)C[C@@]2(C)[C@H]1CC[C@]2(O)C(=O)CO [prednisone] as the compound, how does the biologic half-life [4] read?
The biologic half-life was “about 20 hours”.
